Laboratory results: patent publication US4888287A, “Rapid differentiation of fungi from bacteria using polyene antibiotics” (Eastman Kodak Company, priority 1986, dated 1989)

Key:
A. flavus = test: Inhibition of RIND XXXV reduction by A. flavus (mold), microtitration plate, fluorescence (Example 2, Table III); format: cell-based, Aspergillus flavus (ATCC 20047); conditions: Aspergillus flavus, 0.5 h, 37° C., 30 min, read-out: Corrected Percent Inhibition
Experimental: (§1) gram-negative microorganism Escherichia coli (ATCC 25922), gram-positive microorganism Staphylococcus aureus (ATCC 25923), and Candida albicans yeast cells (ATCC 14053), brain heart infusion broth (BHI) and Sabaroud's dextrose broth (SAB) from Difco Laboratories (Detroit, Michigan, U.S.A.), and Aspergillus flavus (ATCC 20047), a mold from American Type Culture Collection (Rockville, Maryland, U.S.A.).
(§2) E. coli and S. aureus were grown overnight in BHI broth at 37° C. C. albicans and A. flavus were grown overnight at 25° C. in SAB broth with agitation. The cells were harvested by centrifugation, washed and resuspended in 0.05 molar N-2-hydroxyethylpiperazine-N'-2-ethanesulfonic acid (HEPES) buffer (pH 7.8).
(§3) Dispersions containing RIND compounds were prepared by dissolving, for example, RIND VII from Table I above in N,N-dimethylformamide (DMF) at 16 mg compound per ml of solvent. An aliquot (250 μl) of the resulting solution was added to 500 μl of TRITON X-100 surfactant. This mixture was then added dropwise with stirring to 25 ml of 0.05 molar HEPES buffer. A solution containing a water-compatible RIND compound (for example, RIND XXXV) was prepared by dissolving the compound in N,N-dimethylformamide which had been acidified with 0.1% sulfuric acid (16 mg RIND compound per ml of solvent).
(§4) A composition was prepared from the following components: 100 μl RIND XXXV solution (16 mg RIND compound per ml of acidified N,N-dimethylformamide), 200 μl glucose solution (10% in water), 200 μl trimethyl-1,4-benzoquinone ETA solution (1.5 mg/ml methanol) and 10 ml HEPES buffer.
(§5) Test solutions were prepared using the following reagents: 50 μl HEPES buffer, 50 μl filipin polyene antibiotic (12.5 mg/ml dimethylsulfoxide)(serial dilutions of buffer and antibiotic solutions were performed to obtain various antibiotic concentrations), 50 μl of the appropriate cell suspensions, that is, E. coli (about 10^8 cells/ml), S. aureus (about 10^8 cells/ml), C. albicans (about 10^7 cells/ml) and A. flavus, and […] of the RIND composition described above.
(§6) Control solutions were prepared as described in Example 1. Relative fluorescence was measured using a Dynatech MICROFLUOR Reader (Dynatech Laboratories, Alexandria, Virginia) modified to read at excitation 540 nm and emission 620 nm, at zero time and after incubation at 37° C. for 30 minutes. The change in relative fluorescence was then determined as the difference of the two values.

E. coli [1] = test: Inhibition of MTT tetrazolium salt reduction by E. coli, microtitration plate (Example 3, Table IV); format: cell-based, Escherichia coli (ATCC 25922); conditions: Escherichia coli, 0.5 h, E. coli (gram -), 540 nm, 37° C., 30 min, read-out: Corrected Percent Inhibition
Experimental: as §1, §2
(§7) The differentiations of yeast and mold from bacteria were carried out in microtitration plates. The cell suspensions used were like those described in Example 2. The reducible compound used was 3-(4,5-dimethyl-2-thiazolyl)-2,5-diphenyl-2H-tetrazolium bromide (MTT). A composition containing MTT was prepared with the following components: 200 μl MTT solution (5 mg/ml methanol), 200 μl glucose solution (10% glucose in water), 200 μl trimethyl-1,4-benzoquinone ETA and 12 ml of HEPES buffer (0.05 molar, pH 7.8).
as §5, with “components:” for “reagents:”, “suspension, i.e.” for “suspensions, that is,”, “MTT” for “RIND”, “noted” for “described”, “above. Cell Controls contained all reagents except the antibiotic. Background was measured with buffer. Solution Controls contained all reagents except cells.” for “above.”
(§8) Optical density measurements were made at 540 nm using a commercially available spectrophotometer, and the change in optical density (ΔOD) was determined after 30 minutes at 37° C. […] It is apparent that the concentration effective for differentiation of yeast is different than for mold. However, it is well within the skill of a worker in the art to determine the appropriate concentration for a given test.

E. coli [2] = test: Inhibition of RIND XXXV reduction by E. coli, microtitration plate, fluorescence (Example 2, Table III); format: cell-based, Escherichia coli (ATCC 25922); conditions: Escherichia coli, 0.5 h, E. coli (gram -), 37° C., 30 min, read-out: Corrected Percent Inhibition
Experimental: as §1, §2, §3, §4, §5, §6

C. albicans [3] = test: Inhibition of MTT tetrazolium salt reduction by C. albicans, microtitration plate (Example 3, Table IV); format: cell-based, Candida albicans (ATCC 14053); conditions: Candida albicans, 0.5 h, C. albicans (yeast), 540 nm, 37° C., 30 min, read-out: Corrected Percent Inhibition
Experimental: as §1, §2, §7
as §5, with “components:” for “reagents:”, “suspension, i.e.” for “suspensions, that is,”, “MTT” for “RIND”, “noted” for “described”, “above. Cell Controls contained all reagents except the antibiotic. Background was measured with buffer. Solution Controls contained all reagents except cells.” for “above.”
as §8

C. albicans [4] = test: Inhibition of RIND XXXV reduction by C. albicans, dry analytical element (Example 4, Table V); format: cell-based, Candida albicans (ATCC 14053); conditions: C. albicans (yeast), 37° C., 30 min
Experimental: as §1, §2
Dispersions containing RIND compounds were prepared by dissolving, for example, RIND VII from Table I above in N,N-dimethylformamide (DMF) at 16 mg compound per ml of solvent. An aliquot (250 μl) of the resulting solution was added to 500 μl of TRITON X-100 surfactant. […]
A standard paper punch was used to cut circular elements (about 0.6 cm in diameter) from the dried strips. […] Buffer solution was applied to separate elements for background readings.
Relative fluorescence (excitation at 540 nm and emission at 620 nm) was measured using a Dynatech MICROFLUOR reader at zero time and after 30 minutes incubation at 37° C., and the change in relative fluorescence was determined.

`CCCCC[C@@H](O)[C@H]1C(=O)O[C@H](C)[C@@H](O)/C=C/C=C/C=C/C=C/C=C(\C)[C@@H](O)C[C@H](O)C[C@H](O)C[C@H](O)C[C@H](O)C[C@H](O)C[C@@H]1O` [Filipin, filipin] was tested. Which inhibition at 260 µg/mL (A. flavus; 0.26 mg/ml) did it give?
The inhibition at 260 µg/mL was 31.9%.

And the inhibition at 520 µg/mL (A. flavus; 0.52 mg/ml)?
The inhibition at 520 µg/mL was 42.5%.

What about the inhibition at 1040 µg/mL (A. flavus; 1.04 mg/ml) of the same compound?
The inhibition at 1040 µg/mL was 49.8%.

What about the inhibition at 2080 µg/mL (A. flavus; 2.08 mg/ml) of the same compound?
Its inhibition at 2080 µg/mL is 64.9%.

What about the inhibition at 260 µg/mL (E. coli [1]; 0.26 mg/ml) of the same compound?
Its inhibition at 260 µg/mL is 0%.

And the inhibition at 520 µg/mL (E. coli [1]; 0.52 mg/ml)?
Its inhibition at 520 µg/mL is 0%.

And the inhibition at 1040 µg/mL (E. coli [1]; 1.04 mg/ml)?
The inhibition at 1040 µg/mL was 0%.

What about the inhibition at 2080 µg/mL (E. coli [1]; 2.08 mg/ml) of the same compound?
The inhibition at 2080 µg/mL was 0%.

What about the inhibition at 260 µg/mL (E. coli [2]; 0.26 mg/ml) of the same compound?
Its inhibition at 260 µg/mL is 0%.

And the inhibition at 520 µg/mL (E. coli [2]; 0.52 mg/ml)?
The inhibition at 520 µg/mL was 0%.

And the inhibition at 1040 µg/mL (E. coli [2]; 1.04 mg/ml)?
Its inhibition at 1040 µg/mL is 2%.

What about the inhibition at 2080 µg/mL (E. coli [2]; 2.08 mg/ml) of the same compound?
The inhibition at 2080 µg/mL was 17.6%.

And the inhibition at 260 µg/mL (C. albicans [3]; 0.26 mg/ml)?
The inhibition at 260 µg/mL was 10.3%.

What about the inhibition at 520 µg/mL (C. albicans [3]; 0.52 mg/ml) of the same compound?
The inhibition at 520 µg/mL was 50%.

And the inhibition at 1040 µg/mL (C. albicans [3]; 1.04 mg/ml)?
Its inhibition at 1040 µg/mL is 60.3%.

And the inhibition at 2080 µg/mL (C. albicans [3]; 2.08 mg/ml)?
Its inhibition at 2080 µg/mL is 100%.

What about the “Corrected Percent Inhibition” value (C. albicans [4]) of the same compound?
Its value is 76%.
